Values quoted from earlier work in patent US20170231227A1, “ANTIFUNGAL-GRAFTED POLYOLEFIN” (priority 2016, published 2017).

solubility in ethanol (pure ethanol): 40 ppm | solubility in water (water): poor
Compound: C[C@@H]1C/C=C/C=C/C=C/C=C/[C@H](O[C@@H]2O[C@H](C)[C@@H](O)[C@H](N)[C@@H]2O)C[C@@H]2O[C@](O)(C[C@@H](O)C[C@H]3O[C@@H]3/C=C/C(=O)O1)C[C@H](O)[C@H]2C(=O)O [Natamycin, natamycin]
